Values of other authors in patent US20180042922A1 (priority 2016, published 2018).

Test system: patients with PTSD
Conditions: RCTs

## COc1cc2nc(N3CCN(C(=O)c4ccco4)CC3)nc(N)c2cc1OC [prazosin]
  nightmares in patients with PTSD: decrease nightmares
